# Assay results published in patent US11872210B2, “Thiol isomerases inhibitors and use thereof” (WESTERN NEW ENGLAND UNIVERSITY, priority 2017, dated 2024).
# Key:
# ERp57 = target: T1, ERp57 (Homo sapiens, UniProt P30101); experiment: Insulin-based turbidometric assay of thiol isomerase inhibitory activity (ERp57); format: biochemical; details: insulin turbidity assay, 6 point dose curve
# T1 construct: purchased AbCam (Cambridge Mass.)
# T1 sequence (P30101 25-505): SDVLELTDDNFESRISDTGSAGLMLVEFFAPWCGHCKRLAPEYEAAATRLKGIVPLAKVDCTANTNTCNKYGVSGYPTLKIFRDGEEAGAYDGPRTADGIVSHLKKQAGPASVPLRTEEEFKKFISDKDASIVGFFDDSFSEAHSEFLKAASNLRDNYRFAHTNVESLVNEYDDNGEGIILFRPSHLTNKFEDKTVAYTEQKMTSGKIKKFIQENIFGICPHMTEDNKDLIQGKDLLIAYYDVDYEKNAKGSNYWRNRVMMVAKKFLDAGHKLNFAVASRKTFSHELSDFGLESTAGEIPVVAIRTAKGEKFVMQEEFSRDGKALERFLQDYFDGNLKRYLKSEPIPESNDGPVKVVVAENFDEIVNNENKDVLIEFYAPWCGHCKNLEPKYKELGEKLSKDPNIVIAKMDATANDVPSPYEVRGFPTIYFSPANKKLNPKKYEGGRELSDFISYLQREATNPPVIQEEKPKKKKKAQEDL
# [1] = tested on: integrin αIIbβ3 on washed platelets; experiment: Integrin activation (PAC-1 antibody binding) by flow cytometry; format: cell-based, human; details: CRP-XL stimulated
# Procedure: Human Platelet Preparation: 50 mL of blood was drawn from drug free, consenting individuals, into a syringe containing 5 mL sodium citrate (4% w/v) and 7.5 mL warmed ACD (85 mM sodium citrate, 71 mM citric acid and 110 mM glucose). Blood was centrifuged at 102 g for 20 minutes to obtain platelet-rich plasma (PRP), which was then decanted and 104 prostacyclin (PGI2 125 μg/mL, solubilized in ethanol) added. Platelets were pelleted by centrifugation at 1413 g for 10 minutes, platelet poor plasma was discarded and the pellet resuspended in 25 mL Tyrode's-HEPES buffer (134 mM NaCl, 2.9 mM KCl, 0.34 mM Na2HPO4, 12 mM NaHCO3, 20 mM HEPES, 1 mM MgCl2 and 5 mM glucose pH 7.3), 3 mL of ACD and 10 μL PGI2 were added and then following centrifugation at 1413 g for 10 minutes, the platelet pellet was re-suspended to the appropriate cell density using Tyrode's buffer. […]
# Flow Cytometry: 5 μL platelets (2×10^8 cells/mL) was added to 42 μL HEPES-buffered saline with 1 mM Ca2+. […] Samples were then fixed with 450 μL of 0.2% (v/v) paraformaldehyde and analyzed on an accuri C6 flow cytometer (BD Biosciences, UK), with the threshold set to 20,000. Platelet populations were gated and 10,000 events recorded.
# Washed platelets (2×10^8 cells/mL) were incubated with vehicle, zafirlukast (0.6-10 μM) or montelukast (0.6-10 μM) for 5 minutes. […] Data were analyzed using one-way ANOVA, n=3.
# thrombus formation = experiment: Thrombus formation in mice after laser injury of cremaster muscle arterioles (intravital microscopy); format: in vivo, C57/BL6 mouse; details: infused to circulating concentration of 20 μM, 5 minutes
# Procedure: (§1) The effects of zafirlukast on thrombus formation in mice was determined following laser injury of cremaster muscle arterioles, and observed by intravital microscopy. Male C57/BL6 mouse platelets were labelled with DyLight 649-conjugated anti-GPIb antibody (0.2 μg/g body weight) and either vehicle or zafirlukast (ZFL) infused (at a volume required to achieve a circulating concentration of 20 μM). Following laser injury, images were recorded for 5 minutes. […] FIG. 6 illustrates the effects of ZFL on bleeding were determined by tail bleeding assay. Vehicle or ZFL (at a volume required to achieve a circulating concentration of 20 μM) were infused into the femoral veins of C57/BL6 mice, 5 minutes prior to tail biopsy. 0.5 cm of tail tip was excised and blood collected in phosphate-buffered saline (PBS), and time to cessation of bleeding was recorded. […] Graphs represent mean±SEM, n=10 per treatment, data analyzed by Student's T test, ***p<0.005.
# Tail bleeding assay = format: in vivo, C57/BL6 mice; details: infused to circulating concentration of 20 μM, 5 minutes prior to tail biopsy
# Procedure: as §1
# OVCar8 cells = experiment: PrestoBlue cell proliferation assay, OVCar8; format: cell-based, human; details: OVCar8, ovarian cancer, 24 hours treatment
# Procedure: (§2) Cells were plated at 6,000 cells/well in a 96-well plate and treated with the indicated concentration of zafirlukast 24 hours later. Cells were allowed to grow for an additional 24 hours before alterations in growth were measured by the PrestoBlue cell proliferation assay in triplicate. Fluorescence readings with an excitation at 570 nm and emission of 600 nm were collected and treated samples were converted to a percentage of the untreated controls. OVCar8 (human ovarian cancer cell line), HCT116 (human colon cancer), HeLa (cervical cancer cell line) and MDA-MB-231 (breast cancer cell line) cell lines were examined for their ability to inhibit cell proliferation. […] Table 1 illustrates the results of a cell proliferation assay testing zafirlukast against OVCar8 cells, HCT116 cells, HeLa cells and MDA-MB-231 cells.
# MDA-MB-231 cells = experiment: PrestoBlue cell proliferation assay, MDA-MB-231; format: cell-based
# Procedure: as §2
# platelets = experiment: α-granule secretion of platelets; format: cell-based, human; details: 0.1 μM-10 μM
# Procedure: Platelet responses in the presence of zafirlukast, (0.1 μM-10 μM) were tested in a range of platelet functional assays including aggregation, granule secretion and spreading studies.
# Flow Cytometry: 5 μL platelets (2×10^8 cells/mL) was added to 42 μL HEPES-buffered saline with 1 mM Ca2+. To this, 0.5 μL zafirlukast (0.6 μM-10 μM) or montelukast (0.6 μM-10 μM) or vehicle (0.1% (v/v) DMSO) was added and incubated for 5 minutes. 1 μL anti-human CD62p (1:500 dilution) and 1 μL anti-fibrinogen FITC conjugate (1:500 dilution) or 2 μL of anti-PAC-1 antibody were added to samples. Platelets were treated with 5 μL CRP-XL (1 ug/mL) or 5 μL Tyrode's for 20 minutes in the dark. Samples were then fixed with 450 μL of 0.2% (v/v) paraformaldehyde and analyzed on an accuri C6 flow cytometer (BD Biosciences, UK), with the threshold set to 20,000. Platelet populations were gated and 10,000 events recorded.
structure (smiles),measurement,setting,value
"COc1cc(C(=O)NS(=O)(=O)c2ccccc2C)ccc1Cc1cn(C)c2ccc(NC(=O)OC3CCCC3)cc12 [zafirlukast, 4-(5-cyclopentyloxycarbonylamino-1-methylindol-3-ylmethyl)-3-methoxy-N-o-tolylsulfonylbenzamide]",inhibitory range on ERp57,ERp57,30 to 300 µM
same,cell-surface bound PAC-1 antibody (fluorescence),"[1]; 10 μM, vehicle 1623 Au",748.5 Au
same,inhibition at 10 µM,"[1]; Homo sapiens, Platelet, PAC-1 binding",54%
same,"thrombus size (maximum fluorescence intensity), in words",thrombus formation,reduction in thrombus size
same,"bleeding time (time to cessation of bleeding), in words",Tail bleeding assay,no change in bleeding time
same,IC50,"OVCar8 cells; Homo sapiens, OVCAR-8, 24 h",5 to 10 µM
same,IC50,OVCar8 cells,6 µM
same,IC50,"MDA-MB-231 cells; Homo sapiens, MDA-MB-231, breast cancer, 24 hours treatment",100 µM
same,sensitivity of cell proliferation (in words),"MDA-MB-231 cells; MDA-MB-231, compared with OVCar8 and HCT116",less sensitive
same,α-granule secretion (in words),platelets,inhibit
